Experimental data from PubChem BioAssay (NCI).
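48-hour exposure; five concentrations; linearly interpolated endpoints. Here, GI50 denotes the concentration required for 50% inhibition of growth. TGI denotes the concentration required for complete inhibition of growth.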

Tests used:
Test in all cases: inhibition of tumour cell growth, NCI panel, 48 h
[1] = system: PC-3 prostate
[2] = system: T-47D breast
[3] = system: UO-31 renal
[4] = system: ACHN renal
[5] = system: NCI-H460 lung
[6] = system: UACC-62 melanoma
[7] = system: RXF 393 renal
[8] = system: A498 renal
[9] = system: HS 578T breast
[10] = system: HL-60(TB) leukemia

Compound	TGI [1]	TGI [2]	TGI [3]	TGI [4]	TGI [5]	TGI [6]	TGI [7]	TGI [8]	TGI [9]	TGI [10]	GI50 [1]	GI50 [2]	GI50 [3]	GI50 [4]	GI50 [5]	GI50 [6]	GI50 [7]	GI50 [8]	GI50 [9]	GI50 [10]
CCc1cccc(CC)c1NC(=S)NC(=O)c1ccc(Br)cc1	> 100 µM	> 100 µM	> 100 µM	> 100 µM	41.6 µM	> 100 µM	> 78 µM	> 100 µM	> 100 µM	26.3 µM										
CN(C)CCNC(=O)c1cccc2cc3ccccc3nc12	10.8 µM	10.6 µM	4.06 µM	2.85 µM	1.98 µM	3.25 µM	4.13 µM	2.8 µM	10.2 µM	5.3 µM	2.33 µM	1.95 µM	1.11 µM	0.437 µM	0.426 µM	1.42 µM	1.42 µM	1.26 µM	1.6 µM	1.03 µM
COC(=O)c1ccccc1NC(=O)C(=O)CC(=O)c1ccccc1NC1=CC(=O)C(=O)c2ccccc21	42.3 µM	> 95 µM	69 µM	59.5 µM	65.4 µM	24.5 µM	57.5 µM	> 56.2 µM	37.2 µM	12 µM										
Nc1ccn([C@H]2C[C@@H](O)[C@@H](CO)S2)c(=O)n1	> 100 µM	> 100 µM	> 100 µM	> 100 µM	> 100 µM	> 100 µM	> 100 µM	> 100 µM	> 100 µM	> 100 µM	> 100 µM	> 100 µM	23.6 µM	8.65 µM	34.9 µM	> 100 µM	> 39.1 µM	> 100 µM	> 100 µM	14.5 µM
CS(=O)(=O)N1CCN(Cc2cc3nc(-c4cccc5[nH]ncc45)nc(N4CCOCC4)c3s2)CC1 (tested in a mixture with another compound)		0.105 µM	0.292 µM			0.706 µM	0.371 µM	0.774 µM	0.612 µM	34 µM	0.0823 µM	0.0207 µM	0.0493 µM	0.0638 µM	0.0796 µM	0.105 µM	0.0792 µM	0.136 µM	0.0496 µM	0.0575 µM
Nc1c(C(=O)c2cccc(OCCN3CCOCC3)c2)cnn1-c1ccc(F)cc1	> 25 µM	> 25 µM	> 25 µM	> 25 µM	> 25 µM	> 25 µM	> 25 µM	> 25 µM	> 25 µM	> 25 µM	> 25 µM	> 23.7 µM	> 25 µM	> 25 µM	> 25 µM	> 25 µM	> 25 µM	> 25 µM	> 25 µM	> 25 µM
CC(CN)[C@@H]1CC[C@]2(CO)CC[C@]3(C)[C@H](CC[C@@H]4[C@@]5(C)CCC(NCCO)C(C)(C)[C@@H]5CC[C@]43C)[C@@H]12 (stereo partly specified)	11.4 µM	4.58 µM	9.57 µM	17.6 µM	3.43 µM	3.37 µM	2.97 µM	23.5 µM	4.59 µM	7.47 µM	2.53 µM	2.01 µM	2.43 µM	5.2 µM	1.79 µM	1.8 µM	1.51 µM	11 µM	1.87 µM	2.65 µM
Nc1nc2c(c3ncccc13)C(c1cccc(Cl)c1)Cc1ncccc1-2 (stereo unspecified)	17.6 µM	38.5 µM	34.9 µM	67.1 µM	22.6 µM	16.6 µM	4.9 µM	6.24 µM	34.4 µM	10.3 µM	2.6 µM	3.28 µM	3.98 µM	5.13 µM	3.03 µM	0.628 µM	0.908 µM	1.35 µM	3.83 µM	1.21 µM
C(CCc1nnc2c(n1)CCCC2)Cc1nnc2c(n1)CCCC2	> 100 µM	> 100 µM	> 100 µM	> 100 µM	> 100 µM	> 100 µM	> 100 µM	> 100 µM	> 100 µM	> 100 µM										
CC[N+](CC)=c1ccc2nc3c(cc(NCc4ccccc4)c4ccccc43)oc-2c1	1.63 µM	2.3 µM	1.15 µM	1.98 µM	0.435 µM	2.52 µM	2.12 µM	4.62 µM	3.27 µM	1.11 µM	0.264 µM	0.337 µM	0.089 µM	0.398 µM	0.201 µM	0.944 µM	0.781 µM	0.751 µM	0.522 µM	0.209 µM
CCOC(=O)/C=C1\SC(=Nc2ccc(C#N)cc2)N(CCN2C(=O)/C(=C/C(=O)OCC)SC2=Nc2ccc(C#N)cc2)C1=O	13.4 µM	41.2 µM	11.3 µM	17.9 µM	7.35 µM	17.9 µM	9.39 µM	20.5 µM	> 70.5 µM	25.6 µM	1.28 µM	2.37 µM	2 µM	4.62 µM	1.81 µM	3.25 µM	2.61 µM	6.82 µM	3.84 µM	2.66 µM
C=C(CN1CCN(c2cccc(C(F)(F)F)c2)CC1)c1ccc(C(=O)Nc2ccccc2N)cc1	> 50 µM	> 50 µM	12.1 µM	11.1 µM	> 24.8 µM	4.89 µM		5.18 µM	> 36.3 µM	0.856 µM	0.615 µM	13.2 µM	2.4 µM	0.92 µM	1.56 µM	0.409 µM	1.62 µM	0.005 µM	0.491 µM	0.118 µM
CN1CCN(c2ccc(-c3cnc4c(-c5csc6ccccc56)cnn4c3)cc2)CC1	> 15 µM	> 15 µM	> 15 µM	6.13 µM	4.41 µM	> 15 µM	10.7 µM	> 15 µM	> 15 µM	> 15 µM	5.59 µM	> 15 µM	10.3 µM	2.95 µM	2.14 µM	> 15 µM	3.5 µM	4.2 µM	10.9 µM	5.89 µM
O=C(O)CCC1COc2ccccc2O1 (stereo unspecified)	> 10 µM	> 10 µM	> 10 µM	> 10 µM	> 10 µM	> 10 µM	> 10 µM	> 10 µM	> 10 µM	> 10 µM										
